Laboratory results: publication PMC9207808 (ACS Chemical Biology, 2022)
Residues, ends and D or L forms follow the SMILES beside them.

Columns and labels:
DocSTm [1] = assay: Surface plasmon resonance binding to immobilised Doc; parameters: species or system S. Typhimurium; conditions: for koff × 10^-6 / kon × 10^6: 1:1 kinetic fit, mean ± SD of at least 3 replicates; for kon × 10^6: single-cycle kinetics (multicycle for PhdSTm1-73); for Half-life of the complex: t1/2 = ln2 / koff; for fold decrease in affinity (given as decrease/loss in Kd) compared with peptide 1: SPR Kd relative to wild-type peptide 1
Outline: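 Binding constants are means ± SD of at least three replicates: steady-state Kd directly, or Kd calculated from kinetic kon and koff. Sensorgrams were double-referenced and fitted 1:1 after 80 s analyte injections (30 μL/min), either multicycle or single-cycle, over NTA-immobilised Doc. Running buffer was HEPES/500 mM NaCl/EDTA/Tween pH 8.0 at 22 °C.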

[2] = tested on: S. Typhimurium (14028) Δphd-doc::Km strains coexpressing DocSTm; assay: Growth rescue experiment in S. Typhimurium; assay type: cell-based; conditions: coexpression of DocSTm (pBAD33, arabinose) and Phd construct (pCA24N, basal expression); OD600 over time, M9 minimal medium; average of three independent experiments
Experimental: The cotransformations above were also performed with an empty pBAD33 plasmid, as a control for the absence of DocSTm expression.
For the growth rescue experiment, overnight (1% tryptone, 0.5% yeast extract, 0.5% NaCl, 1% glucose, 100 μg/mL of carbenicillin, and 34 μg/mL of chloramphenicol) cultures of the generated S. Typhimurium strains were diluted to an OD600 of approximately 0.006 into fresh M9 minimal medium supplemented with 0.5% or 1% arabinose, 0.4% glycerol, 0.4% casamino acids, 100 μg/mL of carbenicillin, and 34 μg/mL of chloramphenicol. Cell growth at a given time was monitored at OD600 with a Genesys 140 Visible Spectrophotometer (Thermo Scientific).

DocSTm [3] = assay: Dot blot phosphorylation assay (EF-Tu phosphorylation by Doc); assay type: biochemical, S. Typhimurium; conditions: DocSTm 1 μM, EF-TuSTm 3 μM, ATP 1 mM; for inhibition of EF-TuSTm phosphorylation by DocSTm (in words): α-pThr, inhibitor 10 μM to 5 nM (3-fold dilutions), 16 h at RT
Experimental: Samples were prepared to a final volume of 10 μL. […] Samples were incubated for 16 h at RT and subsequently spotted on a nitrocellulose membrane. Phosphorylated EF-Tu was detected by immunodecoration using a rabbit monoclonal antiphosphothreonine antibody (Abcam, ab218195) at 1:2000 dilution (1 h at 4 °C), followed by incubation with a goat antirabbit IgG (H+L) HRP conjugate antibody (Advansta) at 1:10 000 dilution (1 h at RT). Chemiluminescence was developed using the HRP Luminata kit (Merck, WBLUR0100) and captured by an ImageQuant LAS4000 Western blot imaging system (Cytiva).

DocSTm [4] = assay: Differential scanning fluorimetry (thermal stabilisation of Doc); assay type: binding, S. Typhimurium; conditions: for melting temperature shift ΔTm: DSF, DocSTm 5 μM, analyte 50 μM, Tm with analyte minus Tm of free DocSTm (42.9 ± 0.9 °C), SYPRO Orange, 20 mM K2HPO4, 50 mM (NH4)2SO4, pH 8.0, triplicate; for Average Tm / Tm: DocSTm 5 µM + 50 µM binder; for Average Tm: average of 3 replicates
Outline: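 Tm values come from fitting the sigmoidal melt region to a Boltzmann function. Doc (5 μM final) was ramped 25–95 °C with SYPRO Orange (3× final) in pH 8.0 buffer of 20 mM K2HPO4 and 50 mM (NH4)2SO4; each condition in triplicate.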

[5] = SPR, kinetic fit, KD calculated from mean koff and kon, SD propagated, 22 °C, pH 8.0
[6] = SPR multicycle, steady-state fit, replicate 1
[7] = SPR multicycle, steady-state fit, replicate 2
[8] = SPR multicycle, steady-state fit, replicate 3
[9] = SPR, multicycle kinetics, steady-state 1:1 fit, mean ± SD of 3 replicates

Row | Molecule | Kd (DocSTm [1]; SPR kinetic fit, replicate 1) [nM] | Kd (DocSTm [1]; SPR kinetic fit, replicate 2) [nM] | Kd (DocSTm [1]; SPR kinetic fit, replicate 3) [nM] | koff × 10^-6 (DocSTm [1]; SPR, 22 °C, pH 8.0) | kon × 10^6 (DocSTm [1]; SPR, 22 °C, pH 8.0) | Half-life of the complex (DocSTm [1]) [h] | rescue of Salmonella growth from DocSTm-induced growth inhibition (in words) [2] | inhibition of EF-TuSTm phosphorylation by DocSTm (in words) (DocSTm [3]) | melting temperature shift ΔTm (DocSTm [4]) [°C] | Average Tm (DocSTm [4]) [°C] | Tm (DocSTm [4]; replicate 1) [°C] | Tm (DocSTm [4]; replicate 2) [°C] | Tm (DocSTm [4]; replicate 3) [°C] | Kd (DocSTm [1]; [5]) [nM] | fold decrease in affinity (given as decrease/loss in Kd) compared with peptide 1 (DocSTm [1]) | Kd (DocSTm [1]; [6]) [nM] | Kd (DocSTm [1]; [7]) [nM] | Kd (DocSTm [1]; [8]) [nM] | Kd (DocSTm [1]; [9]) [nM] | further results
1 | CC[C@H](C)[C@H](NC(=O)[C@H](C)NC(=O)[C@H](C)NC(=O)[C@H](Cc1ccccc1)NC(=O)[C@H](CCC(=O)O)NC(=O)[C@H](CC(=O)O)NC(=O)[C@H](CC(=O)O)NC(=O)[C@H](CCSC)NC(=O)[C@H](Cc1c[nH]c2ccccc12)NC(C)=O)C(=O)N[C@@H](CCSC)C(=O)N[C@@H](C)C(=O)N[C@H](C(=O)N[C@@H](Cc1c[nH]cn1)C(=O)NCC(=O)N[C@@H](CC(N)=O)C(=O)N[C@@H](CCC(=O)O)C(=O)N[C@@H](CC(C)C)C(=O)N[C@@H](CCCNC(=N)N)C(=O)N[C@@H](CCC(=O)O)C(=O)N[C@@H](CC(C)C)C(=O)N[C@@H](C)C(=O)N[C@@H](CC(=O)O)C(=O)N[C@@H](CCCCN)C(=O)O)C(C)C [peptide 1] (Ac-WMDDEFAAIMAVHGNELRELADK-OH) | 0.0734 | 0.0838 | 0.0591 | 91 ± 11 ×10^-6 s-1 | 1.250 ± 0.259 ×10^6 M-1 s-1 | 2.1 ± 0.3 | only rescued growth after a delay and longer incubation times of 16–18 h | comparable inhibition of the kinase activity | 28.8 ± 0.9 | 71.7 ± 0.1 | 71.8 | 71.5 | 71.6 | – | – | – | – | – | – | Kd (DocSTm [1]; SPR kinetic fit, replicate 4): 0.0819 nM; concentration at which EF-TuSTm phosphorylation is fully inhibited (DocSTm [3]): ≥ 1 µM
2 | CC[C@H](C)[C@H](NC(=O)[C@H](C)NC(=O)[C@H](C)NC(=O)[C@H](Cc1ccccc1)NC(=O)[C@H](CCC(=O)O)NC(=O)[C@H](CC(=O)O)NC(=O)[C@H](C)NC(=O)[C@H](CCSC)NC(=O)[C@H](Cc1c[nH]c2ccccc12)NC(C)=O)C(=O)N[C@@H](CCSC)C(=O)N[C@@H](C)C(=O)N[C@H](C(=O)N[C@@H](Cc1c[nH]cn1)C(=O)NCC(=O)N[C@@H](CC(N)=O)C(=O)N[C@@H](CCC(=O)O)C(=O)N[C@@H](CC(C)C)C(=O)N[C@@H](CCCNC(=N)N)C(=O)N[C@@H](CCC(=O)O)C(=O)N[C@@H](CC(C)C)C(=O)N[C@@H](C)C(=O)N[C@@H](CC(=O)O)C(=O)N[C@@H](CCCCN)C(=O)O)C(C)C [peptide 3] (Ac-WMADEFAAIMAVHGNELRELADK-OH; C-terminus assumed) | 0.0121 | 0.0166 | 0.00992 | 65 ± 18 ×10^-6 s-1 | 5.073 ± 0.369 ×10^6 M-1 s-1 | 2.9 ± 0.8 | a faster recovery was achieved | inhibited DocSTm at similar concentrations to peptide 1 | 25.6 ± 0.9 | 68.5 ± 0.3 | 68.3 | 68.4 | 68.8 | 0.013 | – | – | – | – | – | improvement in koff compared with 1 (DocSTm [1]; SPR): ~1.5 fold; improvement in kon compared with 1 (DocSTm [1]; SPR): ~4 fold; gain of affinity compared to peptide 1 (DocSTm [1]; SPR Kd relative to peptide 1): greater than 5 fold
3 | CC[C@H](C)[C@H](NC(=O)[C@H](C)NC(=O)[C@H](C)NC(=O)[C@H](Cc1ccccc1)NC(=O)[C@H](CCC(=O)O)NC(=O)[C@H](CC(=O)O)NC(=O)[C@H](CC(=O)O)NC(=O)[C@H](CCSC)NC(=O)[C@H](Cc1c[nH]c2ccccc12)NC(C)=O)C(=O)N[C@@H](C)C(=O)N[C@@H](C)C(=O)N[C@H](C(=O)N[C@@H](Cc1c[nH]cn1)C(=O)NCC(=O)N[C@@H](CC(N)=O)C(=O)N[C@@H](CCC(=O)O)C(=O)N[C@@H](CC(C)C)C(=O)N[C@@H](CCCNC(=N)N)C(=O)N[C@@H](CCC(=O)O)C(=O)N[C@@H](CC(C)C)C(=O)N[C@@H](C)C(=O)N[C@@H](CC(=O)O)C(=O)N[C@@H](CCCCN)C(=O)O)C(C)C [peptide 8] (Ac-WMDDEFAAIAAVHGNELRELADK-OH; C-terminus assumed) | 0.67 | 0.611 | 0.485 | 1223 ± 504 ×10^-6 s-1 | 2.221 ± 1.307 ×10^6 M-1 s-1 | 0.16 ± 0.6 | fully rescued Salmonella growth after 18 h of culture | – | 20.8 ± 1.0 | 63.7 ± 0.4 | 64.1 | 63.3 | 63.7 | 0.553 ± 0.397 | 8- to 30 fold | – | – | – | – | –
4 | CC[C@H](C)[C@H](NC(=O)[C@H](C)NC(=O)[C@H](C)NC(=O)[C@H](Cc1ccccc1)NC(=O)[C@H](CCC(=O)O)NC(=O)[C@H](CC(=O)O)NC(=O)[C@H](CC(=O)O)NC(=O)[C@H](CCSC)NC(=O)[C@H](Cc1c[nH]c2ccccc12)NC(C)=O)C(=O)N[C@@H](CCSC)C(=O)N[C@@H](C)C(=O)N[C@H](C(=O)N[C@@H](C)C(=O)NCC(=O)N[C@@H](CC(N)=O)C(=O)N[C@@H](CCC(=O)O)C(=O)N[C@@H](CC(C)C)C(=O)N[C@@H](CCCNC(=N)N)C(=O)N[C@@H](CCC(=O)O)C(=O)N[C@@H](CC(C)C)C(=O)N[C@@H](C)C(=O)N[C@@H](CC(=O)O)C(=O)N[C@@H](CCCCN)C(=O)O)C(C)C [peptide 10] (Ac-WMDDEFAAIMAVAGNELRELADK-OH; C-terminus assumed) | – | – | – | – | – | – | provided only a partial rescue | – | 20.9 ± 1.0 | 63.7 ± 0.4 | 63.3 | 63.7 | 64.2 | – | ~300 fold | 12.2 ± 1.8 | 13.1 ± 1.4 | 40 ± 2.87 | 21.8 ± 15.8 | –
5 | CC[C@H](C)[C@H](NC(=O)[C@H](C)NC(=O)[C@H](C)NC(=O)[C@H](Cc1ccccc1)NC(=O)[C@H](CCC(=O)O)NC(=O)[C@H](CC(=O)O)NC(=O)[C@H](CC(=O)O)NC(=O)[C@H](CCSC)NC(=O)[C@H](Cc1c[nH]c2ccccc12)NC(C)=O)C(=O)N[C@@H](CCSC)C(=O)N[C@@H](C)C(=O)N[C@H](C(=O)N[C@@H](Cc1c[nH]cn1)C(=O)NCC(=O)N[C@@H](CC(N)=O)C(=O)N[C@@H](CCC(=O)O)C(=O)N[C@@H](C)C(=O)N[C@@H](CCCNC(=N)N)C(=O)N[C@@H](CCC(=O)O)C(=O)N[C@@H](CC(C)C)C(=O)N[C@@H](C)C(=O)N[C@@H](CC(=O)O)C(=O)N[C@@H](CCCCN)C(=O)O)C(C)C [peptide 14] (Ac-WMDDEFAAIMAVHGNEARELADK-OH; C-terminus assumed) | – | – | – | – | – | – | unable to rescue growth | – | 14.3 ± 0.9 | 57.2 ± 0.2 | 57.4 | 57.2 | 57.0 | – | ~300 fold | 25 ± 0.5 | 23.9 ± 0.94 | 15.4 ± 2.13 | 21.4 ± 5.25 | –
6 | PhdSTm: full-length wild-type Phd antitoxin protein of S. Typhimurium | – | – | – | – | – | – | prevented Doc-induced growth inhibition | no phosphorylation was detected | – | – | – | – | – | – | – | – | – | – | – | Half-life of the complex (DocSTm [1]; listed as PhdSTm1-73): 6.7 ± 1.4 h
